Reference: BindingDB's records for doi:10.1016/j.ejmech.2019.04.066 (Shanghai Ocean University, 2019)

Test: Inhibition of ICAM-1 in human A549 cells after 1 hr in presence of IL-1beta

C[C@@H]1C(=O)O[C@H]2[C@H]1CC[C@@]1(C)C[C@@H](Br)C(=O)[C@@H](C)[C@H]21
IC50: 5.9 µM
